From patent US10533034B2, “Human iNKT cell activation using glycolipids” (ACADEMIA SINICA, priority 2014, dated 2020)

Tests used:
mCD1d dimer = test: Binding strength of the binary complex between mCD1d and glycolipid (L363 antibody ELISA); design: species or system mouse
Method: (10A, 10B) Different concentrations of mCD1d-glycolipid complexes coated on the ELISA plate were incubated with the saturated amount of L363 antibody conjugated with biotin, followed by streptavidin-HRP detection and ELISA measurement. (10A) The relationship between OD values reflecting L363 antibody binding and the concentration of CD1ddi-glycolipids complex was plotted. (10B) The dissociation constant (KD) between L363 antibody and the indicated mCD1d-glycolipid complex was calculated as described in Materials and methods. (10C) The relationship between OD values reflecting L363 antibody binding and the concentration of glycolipids was plotted. (10D) KD values of the binary complex were calculated from the linear regression of the Scatchard transformation of the L363 antibody binding curve (10C).
Different concentrations of mCD1d^di-glycolipid complexes coated on the ELISA plate were incubated with the saturated amounts of L363 antibody (BioLegend) conjugated with biotin, followed by streptavidin-HRP detection and ELISA measurement. The KD between L363 antibody and the indicated mCD1d^di-glycolipid complex was calculated from the linear regression of the Scatchard transformation of the L363 antibody binding curve using GraphPad Prism software. […] Next, the KD of the binary complex was determined as follows. […]

C1-pulsed splenocytes = test: CD1d dimer staining of in vivo C1-pulsed splenocytes; type: binding, B6 WT mice; conditions: CD3+/CD45R− gated; 3 days after C1 1 μg/mouse
Method: B6 WT splenocytes (n=3) were harvested 3 days after injection with C1 (1 μg/mouse) and stained with CD3, CD45R and the indicated dimer complex conjugated with RPE for 1 hr at 4 degrees Celsius. (11A) CD3+/CD45R− cells were gated to analyze the dimer staining. (11B) unloaded dimer was used as the control. (11C) mCD1d dimer loaded with 7DW8-5-Glc stained 17.1±0.8% of C1-pulsed splenocytes. (11D) mCD1d dimer loaded with 7DW8-5 stained 36.2±5.0% of C1-pulsed splenocytes.

B6 wild type mice = test: Murine serum cytokine/chemokine secretion after i.v. glycolipid, wild type mice; type: in vivo, mouse
Method: B6 wild type mice were i.v. injected with 7DW8-5-Glc at 0.1 or 1 μg/mouse. Sera collected at 2 h and 18 h post-injection were analyzed for chemokine secretions such as IP-10 (6A), KC (6B), MCP-1 (6C), and MIP-1α (6D). These chemokines peaked at 2 hr post-injection.
B6 wild type and Jα18 knockout mice were i.v. injected with the indicated glycolipids (1 μg/mouse) or vehicle. Sera collected at 2 h and 18 h post-injection were analyzed for cytokines like IL-2 (7A), IL-6 (7B), GM-CSF (7C) and TNFα (7D) as well as chemokines such as IP-10 (7E), MIG (7F), KC (7G) and MCP-1 (7H). Only MIG peaked at 18 hr post-injection, while the others peaked at 2 hr post-injection.
All the glycolipids were dissolved in 100% DMSO at a concentration of 1-2 mg/ml. For in vivo experiments, all compounds were diluted to 10 μg/ml in saline just before injection of 100 μl diluted glycolipid or 100 μl 1% DMSO into mice. Pathogen-free C57BL/6 female mice aged 6-12 weeks were obtained from the National Laboratory Animal Center (Taipei, Taiwan). Jα18 knockout (KO) B6 mice were the gifts from Dr. Masaru Taniguchi (RIKEN Research Center for Allergy and Immunology, Yokohama, Japan). All the mice were maintained in pathogen free vivarium of Institute of Cellular and Organismic Biology, Academia Sinica (Taipei, Taiwan).
B6 WT or Jα18 KO mice were intravenously injected with vehicle or glycolipids at 0.1 or 1 μg/mouse. Serum was collected at 2 and 18 h after injection for measurement of cytokines/chemokines by Beadlyte® Mouse Cytokine kit (Millipore, N.Y.) and read by a Luminex® 200™ system (Luminex, Austin, Tex.).
Previously, 0.1 μg/mouse of 7DW8-5 was sufficient for immune stimulation,^19 but higher dosage (1 μg/mouse) was required for the glucose analog 7DW8-5-Glc to induce immune responses (FIG. 6). Thus, the biological activities of newly synthesized glycolipids were tested in B6 mice 2 and 18 hr after i.v. injection of glycolipids at 1 μg/mouse. […] As compared to GSLs with αGlc, GSLs with αGal induced higher levels of cytokines and chemokines, including IFN-γ, IL-2, IL-4, IL-6, GM-CSF, TNFα and IP-10.

| SMILES | binding avidity to mCD1d dimer, fold greater than αGalCer (mCD1d dimer) | percentage of C1-pulsed splenocytes stained by mCD1d dimer loaded with glycolipid (C1-pulsed splenocytes) | levels of KC, MCP-1, IP-10 and MIG chemokines induced (B6 wild type mice; 1 μg/mouse i.v., 2 and 18 hr) | levels of Th1 and Th2 cytokines induced (B6 wild type mice; 1 μg/mouse i.v., 2 and 18 hr) | dosage required to induce immune responses (B6 wild type mice; i.v., sera 2 h and 18 h) | induction of serum cytokines/chemokines (B6 wild type mice; 1 μg/mouse i.v., 2 and 18 hr) |
| --- | --- | --- | --- | --- | --- | --- |
| CCCCCCCCCCCCCC[C@@H](O)[C@@H](O)[C@H](CO[C@H]1O[C@H](CO)[C@H](O)[C@H](O)[C@H]1O)NC(=O)CCCCCCCCCCc1ccc(F)cc1 [Compound 7DW8-5, reference compound] | ~20 fold | 36.2±5.0% | – | – | – | – |
| CC[C@@H](O)[C@@H](O)[C@H](CO[C@H]1OC(CO)[C@@H](O)C(O)C1O)NC(=O)Cc1ccc(F)cc1 (some centres unmarked) [Compound 7DW8-5-Glc] | ~20 fold | 17.1±0.8% | relatively high levels | very low levels | 1 μg/mouse | – |
| CCCCCCCCCCCCCC[C@@H](O)[C@@H](O)[C@H](CO[C@H]1O[C@H](CO)[C@@H](O)[C@H](O)[C@@H]1O)NC(=O)CCCCCCCCCCc1ccc(F)cc1 [Compound 7DW8-5-Man] | – | – | – | – | – | failed to induce any cytokines/chemokines |
